For data set [1], the target named is T1, human 5-hydroxytryptamine-2C (h-5-HT2C) receptor (Homo sapiens, UniProt P28335).
T1 sequence (P28335 33-458): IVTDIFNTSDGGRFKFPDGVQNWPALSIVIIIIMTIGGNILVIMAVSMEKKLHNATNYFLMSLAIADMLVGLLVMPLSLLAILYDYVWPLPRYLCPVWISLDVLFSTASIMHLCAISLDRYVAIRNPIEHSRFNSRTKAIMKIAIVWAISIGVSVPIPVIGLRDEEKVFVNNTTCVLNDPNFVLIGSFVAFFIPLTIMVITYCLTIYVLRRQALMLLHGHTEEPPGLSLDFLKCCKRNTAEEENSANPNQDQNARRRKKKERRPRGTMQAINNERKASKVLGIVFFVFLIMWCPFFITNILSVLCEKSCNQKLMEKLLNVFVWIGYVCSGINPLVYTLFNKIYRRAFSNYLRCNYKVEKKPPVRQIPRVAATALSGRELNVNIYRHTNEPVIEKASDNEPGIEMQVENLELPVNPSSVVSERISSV
Kind of data set: [125I]DOI binding to membranes of CHO cells expressing the h-5-HT2C receptor. The following applies: 5-HT2c Affinity KI (nM), displacement of [125I]DOI, CHO cell membranes. Background: Loss of bound radioactivity is the signal in a displacement assay; it reports binding, not function.

Data set [2] deals with T2, human 5-HT2C receptor (Homo sapiens, UniProt P28335).
T2 sequence (P28335 33-458): T1 sequence (P28335 33-458)
Kind of data set: 5-HT2C receptor-stimulated calcium mobilization (FLIPR) in CHO cells. Particulars: for Emax: CHO, read-out: 5-HT2C Function Emax (%). The data set is classed as cell-based. On the technique in general: A change in cytosolic calcium serves as a functional read-out for many receptors and channels.

Where [3] appears, read: calcium mobilization, CHO cells stably expressing human 5-HT2C, read-out: 5-HT2C Function EC50.

Where a name gives a salt, the structure may show the parent alone. Read-outs that look alike come from different tables or passages of the source.

The values that follow come from US7012089B2, “[1,4]Diazocino[7,8,1-hi]indole derivatives as antipsychotic and antiobesity agents” (Wyeth, priority 2002, dated 2006).

In general, melting point refers to the temperature, or range, at which the solid turns liquid. `c1cc2c3c(c1)c1c(n3CCNCC2)CCC1` (as salt: fumarate) [Example 2, 2,3,4,5,10,11-Hexahydro-1H,9H-cyclopenta[b][1,4]diazocino[7,8,1-hi]indole] yielded a melting point of 180 to 183 °C.

Compound `CN1CCc2cccc3c2N(CC1)C1CCCC31` (centres unmarked) (as salt: fumarate) [Example 3, 3-Methyl-2,3,4,5,9,10,11,11a-octahydro-1H,8bH-cyclopenta[b][1,4]diazocino[7,8,1-hi]indole] gave a melting point of 159 to 161 °C.

Consider `c1cc2c3c(c1)c1c(n3CCNCC2)CCCC1` (as salt: fumarate) [Example 6, 2,3,4,5,9,10,11,12-Octahydro-1H-[1,4]diazocino[7,8,1-jk]carbazole], for which the melting point was in the range of 174 to 176 °C.

The compound `CN1CCc2cccc3c2N(CC1)C1CCCCC31` (centres unmarked) (as salt: fumarate) [Example 7, 3-Methyl-2,3,4,5,8b,9,10,11,12,12a-decahydro-1H-[1,4]diazocino[7,8,1-jk]carbazole] displayed a melting point of 150 to 153 °C.

For the compound `c1cc2c3c(c1)C1CCCCC1N3CCNCC2` (centres unmarked) (as salt: fumarate) [Example 8, 2,3,4,5,8b,9,10,11,12,12a-Decahydro-1H-[1,4]diazocino[7,8,1-jk]carbazole], the melting point was 169 to 171 °C.

Turning to `CN1CCc2cccc3c4c(n(c23)CC1)CCCCC4` (as salt: fumarate) [Example 9, 3-Methyl-2,3,4,5,10,11,12,13-octahydro-1H,9H-cyclohepta[b][1,4]diazocino[7,8,1-hi]indole], the melting point fell in the range of 190 to 192 °C.

As for `c1cc2c3c(c1)c1c(n3CCNCC2)CCCCC1` (as salt: fumarate) [Example 10, 2,3,4,5,10,11,12,13-Octahydro-1H,9H-cyclohepta[b]1,4]diazocino[7,8,1-hi]indole], the melting point lay within 216 to 218 °C.

`CN1CCc2c(Cl)ccc3c2N(CC1)C1CCCC31` (centres unmarked) (as salt: fumarate) [Example 15, 6-Chloro-3-Methyl-2,3,4,5,9,10,11,11a-octahydro-1H,8bH-cyclopenta[b][1,4]diazocino[7,8,1-hi]indole] yielded a melting point of 196 to 199 °C.

In turn, `CN1CCc2c(Cl)ccc3c2N(CC1)C1CCCCCC31` (centres unmarked) (as salt: fumarate) [Example 16, 6-Chloro-3-methyl-2,3,4,5,9,10,11,12,13,13a-decahydro-1H,8bH-cyclohepta[b][1,4]diazocino[7,8,1-hi]indole] came in with a melting point of 190 to 193 °C.

`Clc1ccc2c3c(n4c2c1CCNCC4)CCC3` (as salt: fumarate) [Example 17, 6-Chloro-2,3,4,5,10,11-hexahydro-1H,9H-cyclopenta[b][1,4]diazocino[7,8,1-hi]indole] gave a melting point of 188 to 190 °C.

`Clc1ccc2c3c(n4c2c1CCNCC4)CCCC3` (as salt: fumarate) [Example 18, 6-Chloro-2,3,4,5,9,10,11,12-octahydro-1H-[1,4]diazocino[7,8,1-jk]carbazole]: the melting point lay within 208 to 210 °C.

For `Clc1ccc2c3c(n4c2c1CCNCC4)CCCCC3` (as salt: fumarate) [Example 19, 6-Chloro-2,3,4,5,10,11,12,13-octahydro-1H,9H-cyclohepta[b][1,4]diazocino[7,8,1-hi]indole], the melting point lay within 208 to 210 °C.

Compound `Clc1ccc2c3c1CCNCCN3C1CCCC21` (centres unmarked) (as salt: fumarate) [Example 20, 6-Chloro-2,3,4,5,9,10,11,11a-octahydro-1H,8bH-cyclopenta[b][1,4]diazocino[7,8,1-hi]indole] had a melting point of 188 to 189 °C.

In the case of `CCN1CCc2c(Cl)ccc3c2N(CC1)C1CCCC31` (centres unmarked) (as salt: fumarate) [Example 21, 6-Chloro-3-ethyl-2,3,4,5,9,10,11,11a-octahydro-1H,8bH-cyclopenta[b][1,4]diazocino[7,8,1-hi]indole], the melting point fell in the range of 199 to 201 °C.

What is called Ki is the equilibrium dissociation constant of an inhibitor or competing ligand from its target. Read a high Ki as lower affinity. Broadly, the EC50 is the concentration that produces a half-maximal response. The Emax is the size of the effect at its maximum, as opposed to the concentration needed. Regarding `c1cc2c3c(c1)C1CCCCC1N3CCNCC2` (centres unmarked) [Example 8, 2,3,4,5,8b,9,10,11,12,12a-Decahydro-1H-[1,4]diazocino[7,8,1-jk]carbazole], in data set [1], the Ki is 22 nM. Further, in data set [2], the 50% effective concentration (EC50) came to 18 nM and the Emax amounted to 80%.

With `CN1CCc2cccc3c4c(n(c23)CC1)CCCCC4` [Example 9, 3-Methyl-2,3,4,5,10,11,12,13-octahydro-1H,9H-cyclohepta[b][1,4]diazocino[7,8,1-hi]indole], the inhibition constant Ki in data set [1] was 19 nM. In addition, the maximal response (Emax) in data set [2] was 25%. In addition, the EC50 in data set [2] (setting [3]) is 275 nM.

`c1cc2c3c(c1)c1c(n3CCNCC2)CCCCC1` [Example 10, 2,3,4,5,10,11,12,13-Octahydro-1H,9H-cyclohepta[b]1,4]diazocino[7,8,1-hi]indole] displayed a Ki in data set [1] of 38 nM. The Emax in data set [2] worked out at 90%. Further, the EC50 in data set [2] (setting [3]) was determined as 156 nM.

In data set [1], `Clc1ccc2c3c1CCNCCN3C1CCCCCC21` (centres unmarked) [Example 22, 6-Chloro-2,3,4,5,9,10,11,12,13,13a-decahydro-1H,8bH-cyclohepta[b][1,4]diazocino[7,8,1-hi]indole] showed a Ki of 50 nM. Further, the Emax in data set [2] was found to be 60%. In data set [2] (setting [3]), the 50% effective concentration (EC50) is 326 nM.

On to `CN1CCc2ccc(F)c3c2N(CC1)C1CCCCC31` (centres unmarked) [Example 27, 8-Fluoro-3-methyl-2,3,4,5,8b,9,10,11,12,12a-decahydro-1H-[1,4]diazocino[7,8,1-jk]carbazole], for which the Ki in data set [1] was 13 nM. Further, the Emax in data set [2] is 70%. In addition, the EC50 in data set [2] (setting [3]) worked out at 261 nM.

The compound `Fc1ccc2c3c1c1c(n3CCNCC2)CCC1` [Example 28, 8-Fluoro-2,3,4,5,10,11-hexahydro-1H,9H-cyclopenta[b][1,4]diazocino[7,8,1-hi]indole] displayed a Ki in data set [1] of 12 nM. Further, in data set [2], the EC50 came to 36 nM and the Emax amounted to 80%.

Compound `Fc1ccc2c3c1c1c(n3CCNCC2)CCCC1` [Example 29, 8-Fluoro-2,3,4,5,9,10,11,12-octahydro-1H-[1,4]diazocino[7,8,1-jk]carbazole] returned a Ki in data set [1] of 1 nM. Moreover, in data set [2], the EC50 worked out at 8 nM and the Emax stood at 90%.

`Fc1ccc2c3c1C1CCCC1N3CCNCC2` (centres unmarked) [Example 30, 8-Fluoro-2,3,4,5,9,10,11,11a-octahydro-1H,8bH-cyclopenta[b][1,4]diazocino[7,8,1-hi]indole] showed a Ki in data set [1] of 16 nM. Also, in data set [2], the EC50 was 36 nM and the Emax turned out to be 90%.

The compound `Fc1ccc2c3c1C1CCCCC1N3CCNCC2` (centres unmarked) [Example 31, 8-Fluoro-2,3,4,5,8b,9,10,11,12,12a-decahydro-1H[1,4]diazocino[7,8,1-jk]carbazole] displayed a Ki in data set [1] of 8 nM. Also, in data set [2], the EC50 is 87 nM and the maximal effect (Emax) was 60%.

Regarding `CN1CCc2ccc(Cl)c3c4c(n(c23)CC1)CCC4` [Example 34, 8-Chloro-3-methyl-2,3,4,5,10,11-hexahydro-1H,9H-cyclopenta[b][1,4]diazocino[7,8,1-hi]indole], affinity in data set [1] was put at a Ki of 15 nM. In data set [2], the 50% effective concentration (EC50) is 81 nM and the Emax was found to be 40%.

`CN1CCc2ccc(Cl)c3c4c(n(c23)CC1)CCCC4` [Example 35, 8-Chloro-3-methyl-2,3,4,5,9,10,11,12-octahydro-1H-[1,4]diazocino[7,8,1-jk]carbazole] returned a Ki in data set [1] of 11 nM. The maximal effect (Emax) in data set [2] amounted to 50%. In addition, in data set [2] (setting [3]), the EC50 stood at 287 nM.

In data set [1], `CN1CCc2ccc(Cl)c3c2N(CC1)C1CCCC31` (centres unmarked) [Example 36, 8-Chloro-3-methyl-2,3,4,5,9,10,11,11a-octahydro-1H,8bH-cyclopenta[b][1,4]diazocino[7,8,1-hi]indole] registered a Ki of 12 nM. For the same compound, the Emax in data set [2] is 40%. In data set [2] (setting [3]), the EC50 is 467 nM.

Regarding `CN1CCc2ccc(Cl)c3c2N(CC1)C1CCCCC31` (centres unmarked) [Example 37, 8-Chloro-3-methyl-2,3,4,5,8b,9,10,11,12,12a-decahydro-1H-[1,4]diazocino[7,8,1-jk]carbazole], affinity in data set [1] was put at a Ki of 11.6 nM. In data set [2], the Emax was determined as 70%. Also, the concentration for a half-maximal effect (EC50) in data set [2] (setting [3]) was determined as 655 nM.

On to `Clc1ccc2c3c1c1c(n3CCNCC2)CCC1` [Example 38, 8-Chloro-2,3,4,5,10,11-hexahydro-1H,9H-cyclopenta[b][1,4]diazocino[7,8,1-hi]indole], for which the Ki in data set [1] stood at 9.3 nM. In addition, in data set [2], the EC50 stood at 87 nM and the Emax was 90%.

Take `Clc1ccc2c3c1c1c(n3CCNCC2)CCCC1` [Example 39, 8-Chloro-2,3,4,5,9,10,11,12-octahydro-1H-[1,4]diazocino[7,8,1-jk]carbazole]: affinity in data set [1] was put at a Ki of 2 nM. In addition, in data set [2], the EC50 worked out at 48 nM and the Emax is 80%.

For `Clc1ccc2c3c1C1CCCC1N3CCNCC2` (centres unmarked) [Example 40, 8-Chloro-2,3,4,5,9,10,11,11a-octahydro-1H,8bH-cyclopenta[b][1,4]diazocino[7,8,1-hi]indole], the Ki in data set [1] was determined as 20 nM. Also, in data set [2], the EC50 is 81 nM and the Emax came to 80%.

In data set [1], `Clc1ccc2c3c1C1CCCCC1N3CCNCC2` (centres unmarked) [Example 41, 8-Chloro-2,3,4,5,8b,9,10,11,12,12a-decahydro-1H-[1,4]diazocino[7,8,1-jk]carbazole] registered a Ki of 7.5 nM. In addition, in data set [2], the EC50 came out at 91 nM and the Emax is 90%.
